Experimental data reported in patent US20230245725A1, “Means and Methods for the Prediction of Amyloid Core Sequences” (VIB VZW, priority 2020, published 2023).

Key:
Apo-AI = target: T1, Apo-AI (Homo sapiens, UniProt P02647); assay: Th-T kinetics and endpoint fluorescence analysis of ApoA-I APR variant peptides; assay type: biochemical; settings: triplicate
T1 construct: Endpoint fluorescence analysis; made in house; host or cells: solid phase peptide synthesis (no expression host)
Procedure: The Th-T kinetics (see FIGS. 12A and 12B) and the endpoint fluorescence analysis (see FIG. 11) were performed in triplicate for the peptides depicted in Table 5.
The Th-T kinetics (see FIGS. 13A and 13B) and the endpoint fluorescence analysis (see FIG. 11) were performed in triplicate for the peptides depicted in Table 6.
(§1) Amyloid aggregation was monitored using fluorescent spectroscopy binding assays. Th-T (Sigma) or pFTAA (Ebba Biotech AB) was added in half-area black 96-well microplates (Corning, USA) at a final concentration of 25 μM and 0.5 μM, respectively. Fluorescence intensity was measured in replicates (n=6) using a PolarStar Optima and a FluoStar Omega plate reader (BMG Labtech, Germany), equipped with an excitation filter at 440 nm and emission filters at 480 nm and 510 nm, respectively.

[1] = pFTAA binding assay of synthetic peptides; assay type: physicochemical; settings: 200 μM peptide, rotation 5 days, room temperature; pFTAA 0.5 μM
Excerpt: (§2) In the interest of improving the current description of the familiar amyloidogenic protein dataset, we selected and synthesised a subset of 96 peptides corresponding to strong aggregation prone regions identified in these proteins by Cordax. Apart of prediction strength, the peptide screen was also selectively constructed to ensure broad sequence variability and a wide distribution on the proteins of the dataset, with a preference for longer entries defined by inadequate previous characterisation. Peptide sequences were cross-checked and filtered to exclude overlapping sequences with previously identified amyloid regions and WALTZ-DB (see Table 2). The remaining selection of 96 peptides were synthesized using standard solid phase synthesis and their amyloid-forming properties were initially examined using Thioflavin-T (Th-T) or pFTAA binding, following rotating incubation for 5 days at room temperature. The binding assays are complementary, as Th-T and pFTAA are opposingly charged molecules, which increases the amyloid identification rate by overcoming cases of dye-specific failure to bind to amyloid surfaces based on charge repulsion. Under these conditions, 66 peptides successfully bind the specific dyes (FIGS. 3a & 3b) by forming fibrils with typical amyloid morphologies and properties that were verified using transmission electron microscopy (FIG. 3c) and Congo red staining for selected cases (FIG. 3d). As these dyes are known to yield false negatives, in particular for short peptides, all dye-negative peptides were further investigated using electron microscopy. During this scan, we recovered 19 additional sequences that were capable of forming sparse amyloid-like fibrils with shorter lengths (see FIG. 8).
(§3) Peptides derived from the Cordax validation set were synthesized using an Intavis Multipep RSi solid phase peptide synthesis robot. Peptide purity (>90%) was evaluated using RP-HPLC purification protocols and peptides were stored as ether precipitates (−20° C.). Peptide stocks were initially treated with 1,1,1,3,3,3-hexafluoro-isopropanol (HFIP) (Merck), then dissolved in traces of dimethyl sulfoxide (DMSO) (Merck) (<5%), filtered through 0.2 μm filters and finally in milli-Q water to reach a final concentration of 200 μM or up to 1 mM for dye-negative peptides. Dithiothreitol (DTT) (1 mM) was included in solutions of peptides spanning cysteine or methionine residues. All peptides were incubated at room temperature for a period of 5 days on a rotating wheel.
as §1

[2] = Transmission electron microscopy of peptide fibrils; assay type: physicochemical; settings: amyloid-like fibrils after 5 days at room temperature
Excerpt: as §2
(§4) Peptide solutions were incubated for 5 days at room temperature in order to form mature amyloid-like fibrils. Suspensions (5 μL) of each peptide solution were added on 400-mesh carbon-coated copper grids (Agar Scientific Ltd., England), following a glow-discharging step of 30 s to improve sample adsorption. Grids were washed with milli-Q water and negatively stained using uranyl acetate (2% w/v in milli-Q water). Grids were examined with a JEM-1400 120 kV transmission electron microscope (JEOL, Japan), operated at […].

[3] = Thioflavin-T binding assay of synthetic peptides; assay type: physicochemical; settings: 200 μM peptide, rotation 5 days, room temperature; Th-T 25 μM
Excerpt: as §2, §3, §1

[4] = Amyloid-forming properties of the peptide screen (overall call from Th-T, pFTAA, TEM); assay type: physicochemical; settings: overall amyloid-forming call
Excerpt: as §2, with “8). […]” for “8).”
as §3, §1, §4

Substance	induce the aggregation of Apo-AI (Apo-AI)	capping peptide: prevent the aggregation of Apo-AI (Apo-AI)	pFTAA Binding [1]	TEM [2]	Th-T Binding [3]	Amyloid [4]
LAIVYV (Aggregation inducer) [SEQ ID NO: 182, candidate aggregation inducing variant of ApoA-I APR]	most performant peptides which can induce the aggregation of Apo-AI					
LLTVYV (Aggregation inducer) [SEQ ID NO: 178, candidate aggregation inducing variant of ApoA-I APR]	most performant peptides which can induce the aggregation of Apo-AI					
LWTVYV (Capping peptide) [SEQ ID NO: 175, candidate capping peptide variant of ApoA-I APR]		most performant capping peptides				
LYTVYV (Capping peptide) [SEQ ID NO: 176, candidate capping peptide variant of ApoA-I APR]		most performant capping peptides				
YIILYN			●	●	●	●
YQLVLQ			●	●	●	●
